According to patent US6710048B2, “Pyrazine derivatives as modulators of tyrosine kinases” (Ortho-McNeil Pharmaceutical, Inc., priority 2000, dated 2004):

How the values were obtained:
[1] = molecular target: T1, Calmodulin Kinase (calmodulin-dependent protein kinase 2) (Rattus norvegicus, UniProt P11275); assay: Calmodulin Kinase selectivity assay; format: biochemical; settings: Table 4 kinase selectivity; read-out: IC50, Assay 10 Calmodulin Kinase
T1 construct: a truncated version of the alpha subunit of the rat protein; purchased New England Biolabs 6060; host or cells: insect cells
T1 sequence (P11275 1-325): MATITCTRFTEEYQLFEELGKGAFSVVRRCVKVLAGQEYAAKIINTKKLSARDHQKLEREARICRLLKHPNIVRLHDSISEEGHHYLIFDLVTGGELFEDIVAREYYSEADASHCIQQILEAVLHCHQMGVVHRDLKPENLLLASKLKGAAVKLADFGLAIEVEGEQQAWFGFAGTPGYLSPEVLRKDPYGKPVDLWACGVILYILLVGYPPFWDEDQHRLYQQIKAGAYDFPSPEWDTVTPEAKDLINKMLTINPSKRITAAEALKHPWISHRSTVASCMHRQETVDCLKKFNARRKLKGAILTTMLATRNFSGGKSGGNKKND

Casein Kinase 1 = molecular target: T2, Casein Kinase 1 (Rattus norvegicus, UniProt Q06486); assay: Casein Kinase 1 selectivity assay; format: biochemical; settings: Table 4 kinase selectivity; read-out: IC50, Assay 8 Casein Kinase 1
T2 construct: a truncation at amino acid 318 of the C-terminal portion of the rat CK1 delta isoform produced in E.coli; purchased New England Biolabs 6030; host or cells: E. coli
T2 sequence (Q06486 1-317 limits assumed): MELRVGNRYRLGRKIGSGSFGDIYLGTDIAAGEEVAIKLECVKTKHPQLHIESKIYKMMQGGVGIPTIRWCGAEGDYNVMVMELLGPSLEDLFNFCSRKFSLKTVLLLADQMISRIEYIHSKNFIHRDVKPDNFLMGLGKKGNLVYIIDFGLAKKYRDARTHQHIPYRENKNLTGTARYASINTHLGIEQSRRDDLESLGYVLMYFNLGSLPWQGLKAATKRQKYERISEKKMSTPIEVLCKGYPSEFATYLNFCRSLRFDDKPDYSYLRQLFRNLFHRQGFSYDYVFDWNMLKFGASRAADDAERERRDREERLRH
Protocol: (§1) Assays to test compound inhibition of other kinases were preformed using methods that measure the amount of phosphorylation of a biotinylated peptide substrate. Biotinylated peptide substrates were selected from the literature as appropriate for the enzyme being evaluated. […] Assay conditions vary slightly for each protein kinase, for example, insulin receptor kinase requires 10 mM MnCl2 for activity and Calmodulin-dependent protein kinase requires calmodulin and 2 mM CaCl2. The reaction mixture was dispensed into the wells of a streptavidin coated Flashplate and 1 μl drug stock in 100% DMSO was added to a 100 μl reaction volume resulting in a final concentration of 1% DMSO in the reaction. Enzyme was diluted in 50 mM Tris-HCl pH=8.0, 0.1% BSA and added to each well. The reaction was incubated for one hour at 30° C. in the presence of compound. After one hour the reaction mix was aspirated from the plate and the plate was washed with PBS containing 100 mM EDTA. The plate was read on a scintillation counter to determine ^33P-γ-ATP incorporated into the immobilized peptide. Test compounds were assayed in duplicate at 8 concentrations [100 tM, 10 μM, 1 μM, 100 nM, 10 nM, 1 nM, 100 μM, 10 μM]. A maximum and minimum signal for the assay was determined on each plate. The IC50 was calculated from the dose response curve of the percent inhibition of the maximum signal in the assay according to the formula [max signal−background/test compound signal−background (100)=% inhibition] by graphing the percent inhibition against the log concentration of test compound. Known inhibitor compounds appropriate for the kinase being assayed were also included on each plate.
(§2) VEGF-R (vascular endothelial growth factor receptor-2) is a fusion protein containing a polyhistidine tag at the N-terminus followed by amino acids 786-1343 of the rat VEGF-R2 kinase domain (GenBank Accession #U93306). CDK1 (cyclin dependent kinase 1) is isolated from insect cells expressing both the human CDK1 catalytic subunit and its positive regulatory subunit cyclin B (New England Biolabs, Beverly, Mass., Cat. #6020). CDK4 (cyclin dependent kinase 4) contains amino acids 769 to 921 of the mouse […] protein found in the GST-retinoblastoma protein construct (Santa Cruz Biotechnology, Santa Cruz, Calif.; Cat. #SC-4112). Insulin Receptor Kinase consists of residues 941-1313 of the cytoplasmic domain of the beta-subunit of the human insulin receptor (BIOMOL, Plymouth Meeting, Pa., Cat. #SE-195). Protein Kinase A is the catalytic subunit of cAMP dependent protein kinase-A purified from bovine heart (Upstate Biotech, Lake Placid, N.Y., Cat#14-114). PKC (protein kinase-C) is the gamma or beta isoform of the human protein produced in insect cells (BIOMOL, Plymouth Meeting, Pa., Cat. #SE-143). Casein Kinase 1 is a truncation at amino acid 318 of the C-terminal portion of the rat CK1 delta isoform produced in E.coli (New England Biolabs, Beverly, Mass., Cat. #6030). Casein Kinase 2 includes the alpha and beta subunits of the human CK2 protein produced in E.coli (New England Biolabs, Beverly, Mass., Cat. #6010). Calmodulin Kinase (calmodulin-dependent protein kinase 2) is a truncated version of the alpha subunit of the rat protein produced in insect cells (New England Biolabs, Beverly, Mass., Cat. #6060). Glycogen Synthase Kinase-3 is the beta isoform of the rabbit enzyme produced in E. coli (New England Biolabs, Beverly, Mass., Cat. #6040). MAP Kinase is the rat ERK-2 isoform containing a polyhistidine tag at the N-terminus produced in E. coli. and activated by phosphorylation with MEK1 prior to purification (BIOMOL, Plymouth Meeting, Pa., Cat. #SE-137). EGFR (epidermal growth factor receptor) is purified from human A431 cell membranes (Sigma, St. Louis, Mo., Cat.# E3641). PDGF-R (platelet derived growth factor receptor) is a fusion protein containing a polyhistidine tag at the N-terminus followed by nucleotides 1874-3507 of the human PDGF-R beta subunit kinase domain (Accession #M21616). […]

Protein Kinase A = molecular target: T3, Protein Kinase A (Bos taurus, UniProt P00517); assay: Protein Kinase A selectivity assay; format: biochemical, bovine; settings: Table 4 kinase selectivity; read-out: IC50, Assay 5 Protein Kinase A
T3 construct: purified from bovine heart; purchased Upstate Biotech 14-114; host or cells: bovine heart
Protocol: as §1, §2

[2] = molecular target: T4, Glycogen Synthase Kinase-3 (beta isoform) (Oryctolagus cuniculus, UniProt G1T8E2); assay: GSK-3 kinase selectivity assay; format: biochemical, rabbit; settings: Table 4 kinase selectivity; read-out: IC50, Assay 11 GSK-3
T4 construct: purchased New England Biolabs 6040; host or cells: E. coli
T4 sequence (G1T8E2 1-432): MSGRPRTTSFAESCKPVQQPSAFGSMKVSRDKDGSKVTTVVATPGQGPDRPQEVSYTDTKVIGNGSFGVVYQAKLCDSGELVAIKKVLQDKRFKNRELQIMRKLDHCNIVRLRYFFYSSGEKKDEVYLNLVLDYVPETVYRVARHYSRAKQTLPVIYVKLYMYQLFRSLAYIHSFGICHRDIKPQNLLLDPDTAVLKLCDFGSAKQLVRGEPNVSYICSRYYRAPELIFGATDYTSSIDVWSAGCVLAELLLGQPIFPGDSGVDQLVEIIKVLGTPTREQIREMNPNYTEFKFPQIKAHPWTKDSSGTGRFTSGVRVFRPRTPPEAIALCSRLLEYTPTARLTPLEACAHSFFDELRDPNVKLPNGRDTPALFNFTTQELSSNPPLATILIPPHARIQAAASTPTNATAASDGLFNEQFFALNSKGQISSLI
Protocol: as §1, §2

Insulin Receptor Kinase = molecular target: T5, Insulin Receptor Kinase (Homo sapiens, UniProt P06213); assay: Insulin Kinase selectivity assay; format: biochemical; settings: Table 4 kinase selectivity; read-out: IC50, Assay 13 Insulin Kinase
T5 construct: consists of residues 941-1313 of the cytoplasmic domain of the beta-subunit of the human insulin receptor; purchased BIOMOL SE-195
T5 sequence (P06213 980-1352): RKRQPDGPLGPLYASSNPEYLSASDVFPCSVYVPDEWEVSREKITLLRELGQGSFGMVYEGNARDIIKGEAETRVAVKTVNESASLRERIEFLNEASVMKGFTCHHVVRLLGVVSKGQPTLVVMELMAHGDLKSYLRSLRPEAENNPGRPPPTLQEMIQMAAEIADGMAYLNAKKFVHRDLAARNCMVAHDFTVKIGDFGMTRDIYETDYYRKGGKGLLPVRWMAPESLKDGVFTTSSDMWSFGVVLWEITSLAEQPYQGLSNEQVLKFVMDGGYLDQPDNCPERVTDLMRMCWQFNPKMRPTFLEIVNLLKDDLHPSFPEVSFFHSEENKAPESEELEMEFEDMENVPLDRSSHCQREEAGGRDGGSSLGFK
Protocol: as §1, §2

[3] = molecular target: T6, PDGF-R (platelet derived growth factor receptor) (Homo sapiens, UniProt P09619); assay: PDGF-R kinase selectivity assay; format: biochemical; settings: Table 4 kinase selectivity; read-out: IC50, Assay 14 PDGF-R
T6 construct: polyhistidine (N)
T6 sequence (P09619 554-1106 limits assumed): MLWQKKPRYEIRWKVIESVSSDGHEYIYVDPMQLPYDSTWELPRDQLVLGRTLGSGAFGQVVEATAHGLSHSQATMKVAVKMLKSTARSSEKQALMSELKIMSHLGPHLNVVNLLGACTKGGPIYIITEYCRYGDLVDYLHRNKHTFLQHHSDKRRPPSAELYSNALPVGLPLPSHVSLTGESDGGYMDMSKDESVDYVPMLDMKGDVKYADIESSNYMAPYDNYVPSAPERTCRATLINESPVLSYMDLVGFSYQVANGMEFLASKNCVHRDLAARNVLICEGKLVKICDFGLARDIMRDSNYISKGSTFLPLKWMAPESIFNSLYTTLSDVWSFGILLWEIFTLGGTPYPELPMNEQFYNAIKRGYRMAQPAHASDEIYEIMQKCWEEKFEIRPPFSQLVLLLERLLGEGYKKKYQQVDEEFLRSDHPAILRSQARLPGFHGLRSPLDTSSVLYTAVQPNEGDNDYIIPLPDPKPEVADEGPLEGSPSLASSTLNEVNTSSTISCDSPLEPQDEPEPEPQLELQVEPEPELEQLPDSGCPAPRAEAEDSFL
Protocol: as §1, §2

| Structure (SMILES) | IC50 [1] [µM] | IC50 (Casein Kinase 1) [µM] | IC50 (Protein Kinase A) [µM] | IC50 [2] [µM] | IC50 (Insulin Receptor Kinase) [µM] | IC50 [3] [µM] |
| --- | --- | --- | --- | --- | --- | --- |
| OCCCNc1cncc(-c2cncc(Nc3cccc(Cl)c3)n2)c1 [Cmd 4] | > 100 | > 100 | > 100 | 0.478 | 1.69 | – |
| Clc1cccc(Nc2cncc(-c3cncc(NCCCc4cccnc4)c3)n2)c1 [Cmd 72] | > 100 | > 100 | > 100 | 0.318 | > 100 | 0.876 |
| Clc1cccc(Nc2cncc(-c3cncc(NCCCn4cccn4)c3)n2)c1 [Cmd 75] | 27 | 5.6 | > 100 | 0.606 | > 100 | – |
| Clc1cccc(Nc2cncc(-c3cncc(NCCCn4cncn4)c3)n2)c1 [Cmd 76] | 15.8 | 6.5 | > 100 | 0.196 | > 100 | 0.725 |
| OCCCCNc1cncc(-c2cncc(Nc3cccc(Cl)c3)n2)c1 [Cmd 32] | > 100 | – | > 100 | 4.02 | > 100 | 2.8 |
| CN(C)CCCNc1cncc(-c2cncc(Nc3cccc(Cl)c3)n2)c1 [Cmd 35] | > 100 | > 100 | > 100 | 8.15 | > 100 | 2.5 |
| Clc1cccc(Nc2cncc(-c3cncc(NCCCc4ccncc4)c3)n2)c1 [Cmd 71] | 4.89 | > 100 | > 100 | 0.159 | > 100 | 1 |
| O=C(NCCCO)c1cncc(-c2cncc(Nc3cccc(Cl)c3)n2)c1 [Cmd 39] | > 100 | > 100 | > 100 | 0.866 | 1.8 | 2.8 |
| Clc1cccc(Nc2cncc(-c3cncc(NCCCN4CCCCC4)c3)n2)c1 [Cmd 73] | 7.55 | 5.03 | > 100 | 0.491 | > 100 | 0.175 |
| CN(C)CCNc1cncc(-c2cncc(Nc3cccc(Cl)c3)n2)c1 [Cmd 33, N′-[5-[6-[(3-chlorophenyl)amino]pyrazinyl]-3-pyridinyl]-N^2,N^2-dimethyl-1,2-ethanediamine] | > 100 | > 100 | > 100 | 11.4 | > 100 | 29.2 |
